Measurements as given in patent US8415272B2, “Quinoline derivatives and their use as fungicides” (Syngenta Crop Protection LLC, priority 2008, dated 2013).

Legend:
Septoria tritici = test: Growth inhibition in nutrient broth, Septoria tritici (leaf blotch), photometric; type: cell-based; settings: Zymoseptoria tritici, PDB broth, 24 C, 72 hrs, read-out: control of fungal infection, Septoria tritici
[1] = system: Erysiphe graminis f.sp. tritici; test: Leaf disk assay, Erysiphe graminis f.sp. tritici (wheat powdery mildew), preventive; type: in vivo; settings: Blumeria graminis, foliar, 96 h, wheat leaf segments, assessed four days after inoculation, read-out: control of fungal infection, Erysiphe graminis f.sp. tritici
Experimental: The compounds were tested in a leaf disk assay, with methods described below. The test compounds were dissolved in DMSO and diluted into water to 200 ppm. In the case of the test on Pythium ultimum, they were dissolved in DMSO and diluted into water to 20 […] graminis f.sp. tritici (wheat powdery mildew): Wheat leaf segments were placed on agar in a 24-well plate and sprayed with a solution of the test compound. After allowing to dry completely, for between 12 and 24 hours, the leaf disks were inoculated with a spore suspension of the fungus. After appropriate incubation the activity of a compound was assessed four days after inoculation as preventive fungicidal activity.

Plasmopara viticola = test: Leaf disk assay, Plasmopara viticola (downy mildew of grapevine), preventive; type: in vivo; settings: foliar, 168 h, grapevine leaf disks, assessed seven days after inoculation, read-out: control of fungal infection, Plasmopara viticola
Pythium ultimum = test: Growth inhibition in potato dextrose broth, Pythium ultimum (damping off), photometric; type: cell-based; settings: Globisporangium ultimum, 24° C., 48 hours, read-out: control of fungal infection, Pythium ultimum
Experimental: The compounds were tested in a leaf disk assay, with methods described below. The test compounds were dissolved in DMSO and diluted into water to 200 ppm. In the case of the test on Pythium ultimum, they were dissolved in DMSO and diluted into water to 20 ppm. Pythium ultimum (Damping off): Mycelial fragments of the fungus, prepared from a fresh liquid culture, were mixed into potato dextrose broth. A solution of the test compound in dimethyl sulphoxide was diluted with water to 20 ppm then placed into a 96-well microtiter plate and the nutrient broth containing the fungal spores was added. The test plate was incubated at 24° C. and the inhibition of growth was determined photometrically after 48 hours.

Septoria nodorum = test: Leaf disk assay, Septoria nodorum (wheat glume blotch), preventive; type: in vivo; settings: Parastagonospora nodorum, foliar, 96 h, wheat leaf segments, assessed four days after inoculation, read-out: control of fungal infection, Septoria nodorum
Phytophthora infestans = test: whole plant or invertebrate; type: in vivo; settings: in Solanum lycopersicum, foliar, 96 h, read-out: control of fungal infection, Phytophthora infestans

Structure (SMILES)	inhibition of growth at 60 ppm (Septoria tritici)	pest or weed control at 200 ppm [1]	pest or weed control at 200 ppm (Plasmopara viticola)	inhibition of growth at 20 ppm (Pythium ultimum)	pest or weed control at 200 ppm (Septoria nodorum)	pest or weed control at 200 ppm (Phytophthora infestans)
COCOCC(C)(C)NC(=O)C(Oc1cc(C)c2ncc(C#C[Si](C)(C)C)cc2c1)SC (centres unmarked) [Example 60]	≥ 60%	–	–	–	–	–
C#Cc1cnc2c(F)c(F)c(OC(SC)C(=O)NC(C)(C#N)COC)cc2c1 (centres unmarked) [Example 216]	≥ 60%	≥ 60%	≥ 60%	–	–	–
C#Cc1cnc2ccc(OC(SC)C(=O)NC3(C)CSC3)cc2c1 (centres unmarked) [Example 224]	≥ 60%	–	–	≥ 60%	–	–
C#CC(C)(C)NC(=O)C(Oc1cc(C)c2ncc(C#CC)cc2c1)SC (centres unmarked) [Example 41]	≥ 60%	–	–	–	–	–
CC#Cc1cnc2c(C)cc(OC(SC)C(=O)NC(C)(C)C)cc2c1 (centres unmarked) [Example 37]	≥ 60%	–	–	–	–	–
C#Cc1cnc2ccc(OC(SC)C(=O)NC3(C=O)CCC3)cc2c1 (centres unmarked) [Example 150]	–	≥ 60%	≥ 60%	–	≥ 60%	≥ 60%
CCOCC(C)(C)NC(=O)C(Oc1cc(C)c2ncc(C#C[Si](C)(C)C)cc2c1)SC (centres unmarked) [Example 89]	≥ 60%	–	–	–	–	–
COCCC(C)(C)NC(=O)C(Oc1ccc2ncc(C#C[Si](C)(C)C)cc2c1)SC (centres unmarked) [Example 78]	≥ 60%	≥ 60%	≥ 60%	–	≥ 60%	≥ 60%
CCC#CC(C)(C)NC(=O)C(Oc1cc(Cl)c2ncc(C#C[Si](C)(C)C)cc2c1)SC (centres unmarked) [Example 119]	≥ 60%	–	≥ 60%	–	–	–
COCC(C)(COC)NC(=O)C(Oc1ccc2ncc(C#C[Si](C)(C)C)cc2c1)SC (centres unmarked) [Example 81]	≥ 60%	–	–	–	≥ 60%	≥ 60%
COC(Oc1ccc2ncc(C#C[Si](C)(C)C)cc2c1)C(=O)NC(C)(C)C (centres unmarked) [Example 80]	≥ 60%	≥ 60%	≥ 60%	–	–	≥ 60%
C#CC(C)(C)NC(=O)C(Oc1ccc2ncc(C#CCOC)cc2c1)SC (centres unmarked) [Example 46]	≥ 60%	≥ 60%	–	≥ 60%	–	≥ 60%
CC#CC(C)(C)NC(=O)C(Oc1cc(C)c2ncc(C#CCOC)cc2c1)SC (centres unmarked) [Example 35]	≥ 60%	–	≥ 60%	–	–	–
C#Cc1cnc2ccc(OC(OC)C(=O)NC(C)(C)CO)cc2c1 (centres unmarked) [Example 220]	≥ 60%	≥ 60%	≥ 60%	≥ 60%	–	≥ 60%
CSCC(C)(C#N)NC(=O)C(Oc1ccc2ncc(C#C[Si](C)(C)C)cc2c1)SC (centres unmarked) [Example 59]	≥ 60%	–	–	–	–	≥ 60%
CC#Cc1cnc2c(C)cc(OC(SC)C(=O)NC(C)(C)C#CC)cc2c1 (centres unmarked) [Example 40]	≥ 60%	–	–	–	–	–
CC#Cc1cnc2c(C)cc(OC(SC)C(=O)NC(C)(C)C#CCOC)cc2c1 (centres unmarked) [Example 39]	≥ 60%	–	≥ 60%	–	–	≥ 60%
COCCC#CC(C)(C)NC(=O)C(Oc1ccc2ncc(C#C[Si](C)(C)C)cc2c1)SC (centres unmarked) [Example 100]	≥ 60%	≥ 60%	≥ 60%	≥ 60%	–	≥ 60%
COCC#CC(C)(C)NC(=O)C(Oc1cc(Cl)c2ncc(C#CCF)cc2c1)SC (centres unmarked) [Example 227]	–	≥ 60%	≥ 60%	–	–	≥ 60%
CSC(Oc1cc(Cl)c2ncc(C#C[Si](C)(C)C)cc2c1)C(=O)NC(C)(C)C#CCCCCl (centres unmarked) [Example 120]	≥ 60%	–	–	–	–	–

Structure (SMILES)	inhibition of growth at 60 ppm (Septoria tritici)	pest or weed control at 200 ppm [1]	pest or weed control at 200 ppm (Plasmopara viticola)	inhibition of growth at 20 ppm (Pythium ultimum)	pest or weed control at 200 ppm (Septoria nodorum)	pest or weed control at 200 ppm (Phytophthora infestans)
CCC(C)(C)NC(=O)C(Oc1ccc2ncc(C#C[Si](C)(C)C)cc2c1)SC (centres unmarked) [Example 91]	≥ 60%	≥ 60%	≥ 60%	–	–	–
COCC#Cc1cnc2c(C)cc(OC(SC)C(=O)NC(C)(C#N)COC)cc2c1 (centres unmarked) [Example 33]	≥ 60%	–	–	≥ 60%	–	≥ 60%
CC#CC(C)(C)NC(=O)C(Oc1ccc2ncc(C#CCO)cc2c1)SC (centres unmarked) [Example 50]	–	–	≥ 60%	≥ 60%	–	≥ 60%
C#Cc1cnc2ccc(OC(SC)C(=O)N(C)C3(CO)CCC3)cc2c1 (centres unmarked) [Example 154]	–	–	–	≥ 60%	–	–
COCC(C)(C#N)NC(=O)C(Oc1ccc2ncc(C#CCO)cc2c1)SC (centres unmarked) [Example 52]	–	–	–	≥ 60%	–	≥ 60%
COCC(C)(C#N)NC(=O)C(Oc1cc2cc(C#C[Si](C)(C)C)cnc2cc1F)SC (centres unmarked) [Example 5]	≥ 60%	≥ 60%	≥ 60%	–	–	≥ 60%
C#Cc1cnc2ccc(OC(OC)C(=O)NC(C)(C)C=O)cc2c1 (centres unmarked) [Example 221]	≥ 60%	≥ 60%	≥ 60%	≥ 60%	–	≥ 60%
C#CC(C)(C)NC(=O)C(Oc1ccc2ncc(C#CCO)cc2c1)SC (centres unmarked) [Example 51]	–	–	≥ 60%	≥ 60%	–	≥ 60%
C#Cc1cnc2ccc(OC(SC)C(=O)NC(C)(C#C)C=O)cc2c1 (centres unmarked) [Example 161]	–	–	≥ 60%	≥ 60%	–	≥ 60%
COCC#CC(C)(C)NC(=O)C(Oc1cc2cc(C#C[Si](C)(C)C)cnc2cc1F)SC (centres unmarked) [Example 58]	≥ 60%	≥ 60%	–	–	–	–
COCC#Cc1cnc2ccc(OC(SC)C(=O)NC(C)(C#N)COC)cc2c1 (centres unmarked) [Example 43]	–	≥ 60%	–	≥ 60%	–	≥ 60%
COCC(C)(C#N)NC(=O)C(Oc1cc(C)c2ncc(C#CCO)cc2c1)SC (centres unmarked) [Example 27]	–	≥ 60%	≥ 60%	≥ 60%	–	–
COCC#Cc1cnc2c(C)cc(OC(SC)C(=O)NC(C)(C)C)cc2c1 (centres unmarked) [Example 32]	≥ 60%	–	–	–	–	–
C#Cc1cnc2ccc(OC(SC)C(=O)NC(C)(C#N)CF)cc2c1 (centres unmarked) [Example 92]	–	–	–	≥ 60%	–	–
CCC#CC(C)(C)NC(=O)C(Oc1ccc2ncc(C#C[Si](C)(C)C)cc2c1)SC (centres unmarked) [Example 116]	≥ 60%	≥ 60%	≥ 60%	–	–	≥ 60%
C#CC(C)(C)NC(=O)C(Oc1cc(C)c2ncc(C#CCOC)cc2c1)SC (centres unmarked) [Example 36]	≥ 60%	–	–	≥ 60%	–	–
CC#Cc1cnc2c(C)cc(OC(SC)C(=O)NC(C)(C#N)COC)cc2c1 (centres unmarked) [Example 38]	≥ 60%	≥ 60%	–	≥ 60%	–	–
CSC(Oc1cc2cc(C#C[Si](C)(C)C)cnc2cc1F)C(=O)NC(C)(C)C (centres unmarked) [Example 101]	≥ 60%	–	–	–	–	–
CSC(Oc1cc2cc(C#C[Si](C)(C)C)cnc2c(F)c1F)C(=O)NC(C)(C)C (centres unmarked) [Example 217]	≥ 60%	–	–	–	–	–
